Among the test systems are A549 NSCLC; MALME-3M melanoma; NCI-H23 lung; OVCAR-4 ovarian; RPMI-8226 leukemia; SR leukemia; U251 CNS; HOP-62 NSCLC; MDA-MB-231 breast; PC-3 prostate.
What all share (test): growth of human tumour cells (NCI), 48 h

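These data come from cells grown in 96-well plates and exposed to compound for 48 hours at five concentrations. At the GI50, growth is halved. The concentration for full growth arrest is given as TGI.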

In the case of `S=c1cc(S)sc2c1c(=S)sc1nc3ccccn3c(=S)c12`, the TGI in the test with A549 NSCLC, in the test on MALME-3M melanoma, with NCI-H23 lung, in the test with OVCAR-4 ovarian, in the test on RPMI-8226 leukemia and in the test with SR leukemia was greater than 100 µM throughout. This compound showed a TGI with U251 CNS greater than 100 µM.
For `COc1ccc(Nc2c3ccccc3nc3ccccc23)cc1`, the GI50 in the test with A549 NSCLC was 0.809 µM; with HOP-62 NSCLC, 1.27 µM; in the test with MALME-3M melanoma, 1.83 µM; in the test on MDA-MB-231 breast it was 2.58 µM; in the test with OVCAR-4 ovarian it was 2.06 µM; in the test with RPMI-8226 leukemia it was 1.26 µM. The GI50 is 0.482 µM in the test on SR leukemia and 2.55 µM in the test with U251 CNS. In addition, the TGI came out at 11 µM in the test on A549 NSCLC; 14.4 µM with HOP-62 NSCLC; 9.05 µM in the test on MALME-3M melanoma; 19.3 µM in the test with MDA-MB-231 breast; 15 µM with OVCAR-4 ovarian; 4.66 µM in the test with RPMI-8226 leukemia. Further, the TGI in the test with SR leukemia was determined as 4.01 µM; in the test on U251 CNS it was 14.1 µM.
As for `O=C(CC1(O)C(=O)Nc2c(Cl)cc(Cl)cc21)c1cccc2ccccc12` (stereo unspecified), the TGI in the test with A549 NSCLC worked out at 29.8 µM; with HOP-62 NSCLC it was 30.6 µM; with MALME-3M melanoma, 35.2 µM; in the test with NCI-H23 lung it was 32.8 µM; with OVCAR-4 ovarian it was 25.4 µM; in the test with RPMI-8226 leukemia, 47.4 µM. For the same compound, the TGI in the test with SR leukemia came to 38.5 µM; with U251 CNS, 29.2 µM.
For `CC(=O)c1ccc(NC(=O)C(=O)Nn2c(=S)[nH]c3ccccc3c2=O)cc1`, the TGI with A549 NSCLC, with HOP-62 NSCLC, with MALME-3M melanoma, in the test with NCI-H23 lung, in the test on OVCAR-4 ovarian and in the test with RPMI-8226 leukemia was greater than 100 µM each time. In addition, the TGI in the test with SR leukemia and with U251 CNS was greater than 100 µM each time.
`CC(C)(C)c1cc2c3c(c1)C(C(F)(F)F)(C(F)(F)F)O[Te]3(C)OC2(C(F)(F)F)C(F)(F)F`: the TGI with A549 NSCLC, in the test on HOP-62 NSCLC, with MALME-3M melanoma, with NCI-H23 lung, in the test with OVCAR-4 ovarian and with RPMI-8226 leukemia was greater than 100 µM each time. The TGI in the test on SR leukemia and in the test on U251 CNS was greater than 100 µM each time.
As to `NCCCNCCCCN(CCCN)/[N+]([O-])=N\O`, the TGI with A549 NSCLC, in the test on HOP-62 NSCLC, in the test on MALME-3M melanoma, in the test with NCI-H23 lung, with OVCAR-4 ovarian and in the test on RPMI-8226 leukemia was greater than 100 µM in each case. Also, in the test on SR leukemia, the TGI stood at 83.9 µM.
With `COc1cc(OC)c(C2CC=Cc3c(OC)cc(OC)c(OC)c32)cc1OC` (stereo unspecified), the TGI in the test with A549 NSCLC, with HOP-62 NSCLC, in the test with MALME-3M melanoma, with NCI-H23 lung, with OVCAR-4 ovarian and in the test with RPMI-8226 leukemia was greater than 100 µM each time. The TGI in the test with SR leukemia and in the test on U251 CNS was greater than 100 µM each time.
For the compound `COCCCNC(=O)CC(=O)NCCCOC`, the TGI in the test on A549 NSCLC, with HOP-62 NSCLC, in the test on MALME-3M melanoma, with NCI-H23 lung, in the test with OVCAR-4 ovarian and in the test on RPMI-8226 leukemia was greater than 100 µM throughout. Also, the TGI in the test with SR leukemia and in the test on U251 CNS was greater than 100 µM throughout.
Consider `CC1OC(OC2C(O[C@H]3CC[C@@]4(C)C(=CC[C@H]5[C@@H]6C[C@@H]7O[C@]8(CC[C@H](C)CN8)[C@@H](C)[C@@H]7[C@@]6(C)CC[C@@H]54)C3)OC(CO)C(O)C2OC2OC(CO)C(O)C(O)C2O)C(O)C(O)C1O` (stereo partly specified), for which the TGI with A549 NSCLC turned out to be 34.5 µM; with MALME-3M melanoma, 34.5 µM; in the test on MDA-MB-231 breast it was 38.8 µM; in the test with NCI-H23 lung, 32.5 µM; in the test on OVCAR-4 ovarian it was 37 µM; in the test with PC-3 prostate, 33.5 µM. Moreover, the TGI with SR leukemia was 61.6 µM; in the test with U251 CNS, greater than 100 µM.
As for `COC1OC(COCc2ccc(Cl)cc2)C(OCc2ccc(Cl)cc2)C1N=[N+]=[N-]` (stereo unspecified), the TGI in the test on A549 NSCLC was 16 µM; in the test on MALME-3M melanoma, greater than 100 µM; in the test with NCI-H23 lung it was greater than 100 µM; with OVCAR-4 ovarian, greater than 100 µM; in the test with RPMI-8226 leukemia, greater than 100 µM; in the test on SR leukemia it was greater than 100 µM. The TGI in the test with U251 CNS was greater than 100 µM.
On to `COc1ccc(-c2nc3ccccn3c2/C=C/C(=O)c2cc(OC)c(OC)c(OC)c2)cc1`, for which the GI50 in the test on A549 NSCLC was 7.96 µM; with HOP-62 NSCLC it was 36.2 µM; in the test with MDA-MB-231 breast, 5.22 µM; in the test on NCI-H23 lung, 3.41 µM; with OVCAR-4 ovarian, 5.72 µM; in the test on PC-3 prostate, 19.8 µM. Further, the GI50 in the test on RPMI-8226 leukemia is 7.5 µM; in the test with SR leukemia, 3.71 µM; in the test with U251 CNS, 3 µM. Further, the TGI was greater than 100 µM in the test with A549 NSCLC; greater than 100 µM with HOP-62 NSCLC; greater than 100 µM in the test with MDA-MB-231 breast; 94.1 µM with NCI-H23 lung; greater than 100 µM with OVCAR-4 ovarian; greater than 100 µM in the test on PC-3 prostate. Also, the TGI in the test on RPMI-8226 leukemia was greater than 100 µM; in the test on SR leukemia it was greater than 100 µM; in the test on U251 CNS it was 30.6 µM.
With `CS(=O)(=O)N(N(CCCl)S(=O)(=O)c1ccccc1)S(C)(=O)=O`, the TGI in the test on A549 NSCLC, in the test with HOP-62 NSCLC, in the test with MALME-3M melanoma, in the test with NCI-H23 lung, in the test with OVCAR-4 ovarian and in the test with RPMI-8226 leukemia was greater than 100 µM in each case. The TGI with SR leukemia and with U251 CNS was greater than 100 µM throughout.
In the case of `O=C(Nc1nc2ncn(CCNCc3ccccc3)c2c(=O)[nH]1)c1ccccc1`, the TGI in the test on A549 NSCLC, in the test on HOP-62 NSCLC, in the test on MALME-3M melanoma, with OVCAR-4 ovarian, with RPMI-8226 leukemia and in the test with SR leukemia was greater than 100 µM throughout. In addition, in the test with U251 CNS, the TGI is greater than 100 µM.
Consider `CC1(C)Cc2cc(C(=O)O)c3c(c2C1=O)COCC3`, for which the TGI with A549 NSCLC, in the test with HOP-62 NSCLC, with MALME-3M melanoma, with NCI-H23 lung, with OVCAR-4 ovarian and in the test with RPMI-8226 leukemia was greater than 100 µM each time. The TGI in the test with SR leukemia and in the test on U251 CNS was greater than 100 µM in each case.

These data come from PubChem BioAssay (NCI).
